According to PubChem BioAssay AID1963959 (Molecular Pharmacology Branch, DTP, NCI, 2024):
Several values for one entry are separate records, joined by “and”; a condition that tells them apart may be missing. Equal entries are not always repeated.

Tested on: T-47D spheroids with HUVEC/MSC, viability
Assay: Anticancer human tumor T-47D cell line growth inhibition [PI3K];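 note: spheroids exposed to agents for seven days before reading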;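 for viability, T/C: percent of DMSO vehicle control luminescence so 100% = untreated growth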
Settings: for viability, T/C: stronger effect = lower value; active = viability on the fitted dose curve at most 10% of control; inactive = the rest
In short: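 We assembled tumor spheroids that included a stromal compartment of HUVEC and MSCs, then exposed them to targeted agents alone and together with PI3K pathway inhibitors. Concentration series descended by half-log from clinically achievable Cmax levels. Viability served as the endpoint.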

[1] = curve of first compound, second compound 0.00316 µM
[2] = curve of first compound, second compound 0.01 µM
[3] = curve of first compound, second compound 0.0316 µM
[4] = curve of first compound, second compound 0.1 µM
[5] = curve of first compound, second compound 0.316 µM
[6] = curve of first compound, second compound 1 µM
[7] = second compound 0.00316 µM, first compound 0.0316 µM
[8] = second compound 0.00316 µM, first compound 0.1 µM
[9] = second compound 0.00316 µM, first compound 0.316 µM
[10] = second compound 0.00316 µM, first compound 1 µM
[11] = second compound 0.00316 µM, first compound 3.16 µM
[12] = second compound 0.00316 µM, first compound 10 µM
[13] = second compound 0.01 µM, first compound 0.0316 µM
[14] = second compound 0.01 µM, first compound 0.1 µM
[15] = second compound 0.01 µM, first compound 0.316 µM
[16] = second compound 0.01 µM, first compound 1 µM
[17] = second compound 0.01 µM, first compound 3.16 µM
[18] = second compound 0.01 µM, first compound 10 µM
[19] = second compound 0.0316 µM, first compound 0.0316 µM
[20] = second compound 0.0316 µM, first compound 0.1 µM
[21] = second compound 0.0316 µM, first compound 0.316 µM
[22] = second compound 0.0316 µM, first compound 1 µM
[23] = second compound 0.0316 µM, first compound 3.16 µM
[24] = second compound 0.0316 µM, first compound 10 µM
[25] = second compound 0.1 µM, first compound 0.0316 µM
[26] = second compound 0.1 µM, first compound 0.1 µM
[27] = second compound 0.1 µM, first compound 0.316 µM
[28] = second compound 0.1 µM, first compound 1 µM
[29] = second compound 0.1 µM, first compound 3.16 µM
[30] = second compound 0.1 µM, first compound 10 µM
[31] = second compound 0.316 µM, first compound 0.0316 µM
[32] = second compound 0.316 µM, first compound 0.1 µM
[33] = second compound 0.316 µM, first compound 0.316 µM
[34] = second compound 0.316 µM, first compound 1 µM
[35] = second compound 0.316 µM, first compound 3.16 µM
[36] = second compound 0.316 µM, first compound 10 µM
[37] = second compound 1 µM, first compound 0.0316 µM
[38] = second compound 1 µM, first compound 0.1 µM
[39] = second compound 1 µM, first compound 0.316 µM
[40] = second compound 1 µM, first compound 1 µM
[41] = second compound 1 µM, first compound 3.16 µM
[42] = second compound 1 µM, first compound 10 µM
[43] = curve of first compound, second compound 3.16 µM
[44] = curve of first compound, second compound 10 µM
[45] = second compound 3.16 µM, first compound 0.0316 µM
[46] = second compound 3.16 µM, first compound 0.1 µM
[47] = second compound 3.16 µM, first compound 0.316 µM
[48] = second compound 3.16 µM, first compound 1 µM
[49] = second compound 3.16 µM, first compound 3.16 µM
[50] = second compound 3.16 µM, first compound 10 µM
[51] = second compound 10 µM, first compound 0.0316 µM
[52] = second compound 10 µM, first compound 0.1 µM
[53] = second compound 10 µM, first compound 0.316 µM
[54] = second compound 10 µM, first compound 1 µM
[55] = second compound 10 µM, first compound 3.16 µM
[56] = second compound 10 µM, first compound 10 µM

CCCS(=O)(=O)Nc1ccc(F)c(C(=O)c2c[nH]c3ncc(-c4ccc(Cl)cc4)cc23)c1F + COc1c(OCCCN2CCOCC2)ccc2c3n(c(=NC(=O)c4cnc(N)nc4)nc12)CCN3
inactive: viability, T/C [7] 104% | viability, T/C [8] 86.9% | viability, T/C [9] 110% | viability, T/C [10] 94.1% | viability, T/C [11] 69.5% | viability, T/C [12] 56.8% | viability, T/C [13] 98.3% | viability, T/C [14] 86.2% | viability, T/C [15] 83.4% | viability, T/C [16] 92.4% | viability, T/C [17] 87.4% | viability, T/C [18] 51.3% | viability, T/C [19] 66.8% | viability, T/C [20] 77% | viability, T/C [21] 73.9% | viability, T/C [22] 62.5% | viability, T/C [23] 57.5% | viability, T/C [24] 52.2% | viability, T/C [25] 38% | viability, T/C [26] 42.6% | viability, T/C [27] 36.4% | viability, T/C [28] 39.8% | viability, T/C [29] 31.6% | viability, T/C [30] 33.7% | viability, T/C [31] 14.9% | viability, T/C [32] 22.1% | viability, T/C [33] 18.3% | viability, T/C [34] 16.1% | viability, T/C [35] 18.8% | viability, T/C [36] 20.5%
< 0.0316 µM: IC50 [4] | IC50 [5] | IC50 [6]
active: viability, T/C [37] 5.53% | viability, T/C [38] 9.03% | viability, T/C [39] 6.15% | viability, T/C [40] 2.77% | viability, T/C [41] 4.64% | viability, T/C [42] 6.82%
> 10 µM: IC50 [1] | IC50 [2] | IC50 [3]

CC1(C)CCC(Nc2ncc(C(F)(F)F)c(-c3c[nH]c4c(P(C)(C)=O)c(C#N)ccc34)n2)CN1 (stereo not given) + Cc1nc(NC(=O)N2CCCC2C(N)=O)sc1-c1ccnc(C(C)(C)C(F)(F)F)c1
inactive: viability, T/C [19] 73.6% | viability, T/C [20] 64.5% | viability, T/C [21] 73.7% | viability, T/C [22] 72.4% | viability, T/C [23] 72.2% | viability, T/C [24] 45.1% | viability, T/C [25] 68.7% | viability, T/C [26] 65.8% | viability, T/C [27] 65.6% | viability, T/C [28] 64.6% | viability, T/C [29] 70.9% | viability, T/C [30] 42.9% | viability, T/C [31] 67% | viability, T/C [32] 57.7% | viability, T/C [33] 55% | viability, T/C [34] 55.7% | viability, T/C [35] 59.2% | viability, T/C [36] 35.9% | viability, T/C [37] 56.7% | viability, T/C [38] 58.1% | viability, T/C [39] 45.2% | viability, T/C [40] 44.2% | viability, T/C [41] 54.4% | viability, T/C [42] 22.7% | viability, T/C [45] 47.3% | viability, T/C [46] 41.3% | viability, T/C [47] 42.3% | viability, T/C [48] 38.6% | viability, T/C [49] 40.1% | viability, T/C [50] 8.96% | viability, T/C [51] 30.3% | viability, T/C [52] 29.4% | viability, T/C [53] 26.6% | viability, T/C [54] 27.5% | viability, T/C [55] 20.8%
active: viability, T/C [56] 3.07%
< 0.0316 µM: IC50 [43] | IC50 [44]
8.08 µM: IC50 [3]
> 10 µM: IC50 [4]
4.92 µM: IC50 [5]
3.39 µM: IC50 [6]

CC(C)NCC(C(=O)N1CCN(c2ncnc3c2C(C)CC3O)CC1)c1ccc(Cl)cc1 (stereo not given) + COc1c(OCCCN2CCOCC2)ccc2c3n(c(=NC(=O)c4cnc(N)nc4)nc12)CCN3
< 0.0316 µM: IC50 [4] | IC50 [5] | IC50 [6]
active: viability, T/C [37] 5.88% | viability, T/C [38] 5.08% | viability, T/C [39] 4.99% | viability, T/C [40] 5.31% | viability, T/C [41] 4.66% | viability, T/C [42] 6.36%
inactive: viability, T/C [7] 92.8% | viability, T/C [8] 71% | viability, T/C [9] 74.3% | viability, T/C [10] 64.8% | viability, T/C [11] 50.7% | viability, T/C [12] 45.9% | viability, T/C [13] 90.7% | viability, T/C [14] 74.2% | viability, T/C [15] 64% | viability, T/C [16] 53.6% | viability, T/C [17] 45.3% | viability, T/C [18] 38.8% | viability, T/C [19] 69.8% | viability, T/C [20] 70.9% | viability, T/C [21] 50.1% | viability, T/C [22] 45.2% | viability, T/C [23] 40.6% | viability, T/C [24] 38.3% | viability, T/C [25] 46.5% | viability, T/C [26] 40.7% | viability, T/C [27] 34.3% | viability, T/C [28] 30.4% | viability, T/C [29] 30.2% | viability, T/C [30] 26.1% | viability, T/C [31] 17.6% | viability, T/C [32] 18.4% | viability, T/C [33] 16% | viability, T/C [34] 17.4% | viability, T/C [35] 15.1% | viability, T/C [36] 15.6%
1.6 µM: IC50 [2]
5.28 µM: IC50 [1]
0.324 µM: IC50 [3]

CC(Nc1ncnc2nc[nH]c12)c1cc2cccc(Cl)c2c(=O)n1-c1ccccc1 (stereo not given)
> 10 µM: IC50 (compound alone, run of 04/25/2023)
inactive: viability, T/C (compound 0.0316 µM) 96.2% [middle of 8 runs] | viability, T/C (compound 0.316 µM) 96.2% [middle of 8 runs]

C#Cc1c(F)ccc2cc(O)cc(-c3ncc4c(N5CC6CCC(C5)N6)nc(OCC56CCCN5CC(F)C6)nc4c3F)c12 (stereo not given)
> 10 µM: IC50 (curve of compound)
inactive: viability, T/C (compound 0.1 µM) 99.3% [middle of 4 runs] | viability, T/C (compound 3.16 µM) 98.4% [middle of 4 runs] | viability, T/C (compound 10 µM) 96.3% [middle of 4 runs]

CC(=O)c1c(C)c2cnc(Nc3ccc(N4CCNCC4)cn3)nc2n(C2CCCC2)c1=O
inactive: viability, T/C (compound 0.000316 µM) 94.9% [middle of 4 runs] | viability, T/C (compound 0.001 µM) 98% [middle of 4 runs] | viability, T/C (compound 0.0316 µM) 96.2% [middle of 4 runs] | viability, T/C (compound 0.1 µM) 86.7% [middle of 4 runs]
> 0.1 µM: IC50 (curve of compound)

CC1(C)CCC(Nc2ncc(C(F)(F)F)c(-c3c[nH]c4c(P(C)(C)=O)c(C#N)ccc34)n2)CN1 (stereo not given) + CC(Nc1ncnc2nc[nH]c12)c1cc2cccc(Cl)c2c(=O)n1-c1ccccc1
> 10 µM: IC50 [3] | IC50 [4] | IC50 [5] | IC50 [6] | IC50 [43]
inactive: viability, T/C [19] 73.3% | viability, T/C [20] 62.5% | viability, T/C [21] 67.2% | viability, T/C [22] 71.9% | viability, T/C [23] 76.9% | viability, T/C [24] 48.4% | viability, T/C [25] 72.9% | viability, T/C [26] 69.9% | viability, T/C [27] 69.7% | viability, T/C [28] 59.8% | viability, T/C [29] 78.2% | viability, T/C [30] 48.6% | viability, T/C [31] 60.4% | viability, T/C [32] 70.9% | viability, T/C [33] 66% | viability, T/C [34] 64.6% | viability, T/C [35] 75.5% | viability, T/C [36] 51% | viability, T/C [37] 62.2% | viability, T/C [38] 63.5% | viability, T/C [39] 69.6% | viability, T/C [40] 57.6% | viability, T/C [41] 64.2% | viability, T/C [42] 47.1% | viability, T/C [45] 57.5% | viability, T/C [46] 60.3% | viability, T/C [47] 66.4% | viability, T/C [48] 60% | viability, T/C [49] 66.8% | viability, T/C [50] 40.5% | viability, T/C [51] 47.4% | viability, T/C [52] 60.1% | viability, T/C [53] 64.6% | viability, T/C [54] 51.7% | viability, T/C [55] 57.2% | viability, T/C [56] 29%
4.1 µM: IC50 [44]

C[C@@H](NC(=O)c1ncnc(N)c1Cl)c1ncc(C(=O)Nc2cc(C(F)(F)F)c(Cl)cn2)s1
> 10 µM: IC50 (curve of compound)
inactive: viability, T/C (compound 0.0316 µM) 93.7% [middle of 4 runs] | viability, T/C (compound 0.316 µM) 89.2% and 106% (2×) and 91.6% | viability, T/C (compound 3.16 µM) 99.1% [middle of 4 runs] | viability, T/C (compound 10 µM) 91% [middle of 4 runs]
